{"source": "patent US8759364B2", "about": "“Methods of treating bone mass diseases” (The Trustees of Columbia University in the City of New York, priority 2008, dated 2014)", "system": "Lrp5−/− mice", "test": "pCPA treatment of WT and Lrp5−/− mice (bone histomorphometry, serum serotonin, TPH1/TPH2 expression)", "type": "in vivo", "experimental": "Consistent with the conclusion that the increase in serum serotonin level is responsible fully or partly for the bone phenotype of the Lrp5−/− mice is the discovery that pCPA, a serotonin synthesis inhibitor (Eldridge et al., 1981, Ann. Rev. Physiol. 43:121-135), prevented the appearance of the Lrp5−/− bone phenotype by decreasing serotonin production. WT and Lrp5−/− mice were treated with 300 mg/kg pCPA intraperitoneally three times per week, from 3 weeks to 12 weeks of age (FIG. 7A) and the changes in serum serotonin levels, TPH1 expression in gut and TPH2 expression in brain stem were analyzed. Bone histomorphometry was also performed. […] This rescue of the Lrp5−/− phenotype was achieved by normalization of the gut TPH1 mRNA and of serum serotonin levels (FIGS. 7C and 7D).\nGeneration of Lrp5−/− (Kato et al., 2002, J. Cell Biol. 157:303-314) β-cateninfloxed/floxed (Glass et al., 2005, Dev. Cell 8:751-764), α1(I)collagen-cre transgenic (Dacquin et al., 2002, Dev. Dyn. 224:245-251) and Htt−/− (Ansorge et al., 2008, J. Neurosci. 28:199-207) mice were as described previously. Lrp5+/−;Htt+/− double heterozygous mice were generated by crossing Lrp5+/− and Htt+/− mice. Three week-old Wt or Lrp5−/− mice were administered pCPA on alternate days for 9 weeks by i.p. All animal protocols were approved by the Animal Care Committees of Columbia University.\nStatic histomorphometry measurements were performed as previously described in accordance with standard nomenclature, using the Osteomeasure Analysis System (Osteometrics, Inc) (Ducy et al., 2000, Cell 100:197-207). Four to 9 animals were assigned per group.\nSerotonin serum levels were quantified using immunoassay kits from Fitzgerald (Serotonin) and serotonin levels in the different regions of the brain were quantified by HPLC method as described previously (Mann et al., 1992, Arch. Gen. Psychiatry 49:442-446).", "key": {"[1]": {"settings": "300 mg/kg pCPA i.p. three times per week, 3 to 12 weeks of age, FIG. 7"}}, "note": "Entries after “also recorded” stand apart in the source; their conditions may differ.", "data": [{"compound": "NC(Cc1ccc(Cl)cc1)C(=O)O", "note": "(centres unmarked) [pCPA, para-chlorophenylalanine]", "values": [{"measurement": "bone mass in WT mice", "setting": "300 mg/kg pCPA i.p. three times per week, 3 to 12 weeks of age", "value": "without overtly affecting"}, {"measurement": "gut TPH1 mRNA in Lrp5−/− mice", "setting": "[1]", "value": "normalization"}, {"measurement": "serum serotonin levels in Lrp5−/− mice", "setting": "[1]", "value": "normalization; also recorded: normalizes"}, {"measurement": "bone abnormalities (low bone phenotype) of Lrp5−/− mice", "setting": "300 mg/kg pCPA i.p. three times per week, 3 to 12 weeks of age, histomorphometry, FIG. 7B", "value": "corrected"}, {"measurement": "Brain TPH2 mRNA levels", "setting": "treated mice, 300 mg/kg pCPA i.p.", "value": "not affected"}]}]}
